US7173021B2, “Synthesis of temozolomide esters as potent anticancer pro-drugs for topical and transdermal applications in treatments of cancers” (Tianjin North Pharm Sci-Tech Co., Ltd., priority 2004, dated 2007)
Values after ≈ are worked out from the molar mass of the structure shown. “Also recorded” adds a separate entry of the source.

What was measured:
[1] = In vitro permeation, Franz diffusion cell, silicone membrane; type: in vitro ADME; settings: 37° C., 8 h, FIGS. 3-5
From the text: (§1) Jacketed Franz-type diffusion cells were used throughout the study and the barrier (12) (skin or silicone membrane) was mounted between the two chambers (14, 16) (2.8–3.4 cm^2 available surface area) with the dermal side in contact with the receiver solution (FIG. 2). The diffusion chambers (10) comprised a barrier of skin or silicone membrane (12) mounted between two chambers (14, 16). A cap (18) formed the donor compartment (14). The second receptor compartment (16) contained a receptor cell (20) with a stirring bar (22), sampling port (24) and cover (26). The stirring bar (22) was stirred by means of a magnet plate (28) having a rotating magnet. The receptor compartment comprised a water jacket (30) having a water inlet (32) and a water outlet (34).
(§2) Three types of materials were used in permeation studies. • 1. Silicone membrane (Silastic Medical Grade, 500-5, Dow Corning 0.005 in thick) was cut into circular sections (2 cm diameter) and washed with double distilled water prior to use. • 2. Full-thickness rat skin was obtained from Male Wistar rats aged 10 to 12 weeks and weighing 250 to 300 g, which were sacrificed by cervical dislocation, the abdomen shaved and the intact skin removed by dissection. Following removal of fat tissue, the skin was cut into circular pieces and used immediately. • 3. Samples of adult human epidermis were purchased from the Stephen Kirby Skin Bank (UK). The samples were from the leg, were stored at −18° C. and used within one week. Experiments
The membrane (as detailed above) was mounted on the diffusion cell (10), on which the surface area available for diffusion of each cell was about 2.8–3.4 cm^2. The cell cap (18) was placed on the membrane (12), and it was sealed with Parafilm® connecting the cell cap, membrane, and receptor cell. The capacity of each receptor cell was around 25–26 ml, which was filled with receptor solution and was completely in contact with the membrane sheet. During the course of experiment, the solution was continuously stirred by teflon-coated magnetic bar (22) placed in the cell (20). The temperature was maintained at 37° C. by a thermostatic water pump that circulated the water through the jacket (30) surrounding the cell body. The system was allowed to equilibrate under these conditions for half an hour. Finally, the prepared sample solution (2 ml) was added into the donor cap cell, and it was sealed with Parafilm® to minimize the evaporation of donor solution. 1 ml of receptor solution was removed every 30 minutes for 5 hours and then every 60 minutes for a further 3 hours. The volumes withdrawn were always replaced with equal volumes of fresh receptor solution to maintain constant volume. The concentration of each sample solution was determined by using HPLC.
For every sample, six determinations were performed on human and rat skin, and three determinations were carried out through artificial silicone membrane.
As stated above, after the removal of receptor solution, the receiver compartment was refilled with an identical volume of receptor fluid. This causes of the dilution of receptor solution leading to an under determination of the sample concentration. As a consequence, it was necessary to mathematically correct each successive sample concentrations, in the present invention, which was determined by applying the following equation:
(§3) [formula] where Ct is the actual current concentration of drug in the receptor phase at time t, Cmt is the apparent (i.e. measured) current concentration of drug in the receptor phase, Vs is the sample volume withdrawn for analysis, Vr is the volume of receptor solution, and ΣCm is the summed total of the previous measured concentrations.
(§4) Finally, the amount of drug penetrating the skin per unit area was calculated by dividing the obtained concentrations by the surface area available for diffusion cell and this value was different for each individual cell. […]

pig liver esterase = experiment: Enzymatic metabolizing study with pig liver esterase (1H NMR); type: in vitro ADME; settings: 37° C., pH 7.4 buffer; ester complete at 10 minutes; amide followed up to 8 hours
Method: First the present invention establishes the metabolised process of the temozolomide esters by pig liver esterase in vitro. ^1H NMR spectra 1 (FIG. 1) records the degradation profile of the temozolomide methyl ester under incubation condition (Rathbone D L, 1999). […] Finally, at 10 minutes, the intensity of the singlet at 3.58 ppm grows to the grade similar to the original of the two singlets at 3.63 and 3.65 ppm, which while are completely eliminated. […] This discovery establishes the solid foundation for the temozolomide esters to be considered as the potential anticancer pro-drugs.
Enzymatic metabolizing studies of the temozolomide methyl ester was carried out using pig liver esterase enzyme from Sigma [a suspension in 3.2 M ammonium sulphate solution pH 8; 200 unit/mg protein (14 mg protein/ml)]. • A. To a NMR tube 2 mg of the temozolomide methyl ester was added, followed by 0.2 ml of d6-DMSO, 0.5 ml D2O of pH 7.4 sulphate buffer and finally 50 μl of the enzyme solution. Record a ^1H NMR spectrum immediately, then the mixture was incubated at 37° C. and record a ^1H NMR spectrum at each 5 minutes time interval. […] The samples were dissolved in d6-DMSO in an NMR tube, 50 μl of enzyme solution was added and the solution incubated at 37° C.

[2] = Solubility in 10% v/v propylene glycol; type: physicochemical; settings: 10% v/v propylene glycol aqueous solution, aqueous with cosolvent or surfactant or cyclodextrin, thermodynamic from solid, ambient conditions, stirred 5 hours, read-out: Solubility, Concentration
Method: The potential of temozolomide esters used as topical and transdermal prodrugs is first proven through studies of their solubility. That is a decreased trend of solubility in an aqueous solution with increase of the length of the ester hydrocarbon alkyl chain of the temozolomide esters. It is clear the solubility constantly decreases from the methyl ester to the octyl ester, while temozolomide itself is 3.0 mg/ml similar to that of the methyl ester. […] Similarly to the esters, the solubility of the temozolomide amide products in the aqueous solution is considerably lower than that of temozolomide.
The solubility of temozolomide and the temozolomide esters was determined in 10% v/v propylene glycol by stirring an excess of the solid products at room temperature for 5 hours. The mixtures were then filtered, diluted with sample solvent and analysed using HPLC.

[3] = In vitro permeation and metabolism, Franz diffusion cell, human skin; type: in vitro ADME
From the text: as §1, §2
The membrane (as detailed above) was mounted on the diffusion cell (10), on which the surface area available for diffusion of each cell was about 2.8–3.4 cm^2. The cell cap (18) was placed on the membrane (12), and it was sealed with Parafilm® connecting the cell cap, membrane, and receptor cell. […] The concentration of each sample solution was determined by using HPLC. […]
As stated above, after the removal of receptor solution, the receiver compartment was refilled with an identical volume of receptor fluid. […] As a consequence, it was necessary to mathematically correct each successive sample concentrations, in the present invention, which was determined by applying the following equation:
as §3, §4

[4] = Measured log P, octanol/water; type: physicochemical; settings: octanol/water system; read-out: measured Log P (mLog P)
Method: Log P values of temozolomide (1) and the temozolomide esters were calculated using TSAR (Oxford Molecular, Oxford, UK), Molecular Modeling Pro (ChemSW, Fairfield, Calif.) and Chem Office 7.0 (CambridgeSoft, Cambridge, UK) programmes. Calculated Log P values were verified for temozolomide and the temozolomide hexyl ester by measuring the octanol/water coefficient (Table 4).

B16-BL6 (mouse melanoma) = experiment: In vitro tumour cell growth inhibition (MTT), B16-BL6; type: cell-based; settings: Mus musculus, B16-BL6, Table 2 experiment, 96 h
Method: (§5) Temozolomide (white powder), temozolomide acid (white powder) and temozolomide-8-carboxylate hexyl (white scale crystal) were made in house. For the estimation of in vitro tumour cell growth inhibition, MV3 (human melanoma), M14 (human melanoma), B16 and B16-BL6 (mouse melanoma), SHG-44, TJ899 and TJ905 (human glioma), MCF-7 (human breast), HCT-8 (human colon), A549 (human non small lung), Bel7402 (human hepatocellulor), and BGC-823 (human stomach) were used. All tumour cells were cultured in RPMI-1640 medium supplemented with 10% fetal bovine serum (FBS) at 37° C. in a humidified 5% CO2 incubator.
(§6) After being harvested from culture flasks, a cell suspension of 1×10^4/ml was made by using 1640 RPMI medium supplemented with 10% fetal bovine serum. 100 μl (contains 1000 tumour cells) of the cell suspension was seeded per well of 96-well flat-bottom Costar culture plates at 37° C. in a humidified 5% CO2 incubator for 24 hrs before introducing drugs. Each tested compounds was made for five different concentrations and 100 μl of the each concentration was introduced into parallel three wells; control wells were added with 100 μl of plain medium alone; fluorouracil (a chemotherapeutic antitumour drug) was used as the positive control. Cells were then incubated for 96 h. Proliferative response and cell death were determined using MTT (3-(4,5-dimethylthiazolyl)-2,5-diphenyl-tetrazolium bromide) assay.
(§7) MTT assay: Following incubation of cells with the tested compounds for 96 h, 100 μl of 0.4 mg/ml MTT in RPMI 1640 was added to each well and the plate was incubated at 37° C. for 4 h. The plate was then centrifuged and followed by removal of medium. 150 μl of DMSO was then added to dissolve formazan crystal. DMSO-added plates were placed on a plate shaker for 5 min and absorbance was measured spectrophotometrically at 540 nm (with reference wavelength at 450 nm) using a Benchmark microtiter plate reader (Bio-Rad 550, Bio-Rad Laboratories, CA, U.S.A.).
(§8) The IC50 was calculated from the curve of the tested compound concentrations against the inhibition rate of the tumour cells. Table 1 summarized the experiment results by using six human cancer cell lines, HCT-8 (colon carcinoma), A549 (non small lung carcinoma), MCF-7 (breast), Bel7402 (hepatocellulor carcinoma), BGC-823 (stomach adenocarcinoma), and MV3 (melanoma). Table 2 summarized the results from the experiment results by using two human melanoma cell lines, MV3 and M14, two mouse melanoma cell lines, B16 and B16-BL6, and three human glioma cell lines, TJ899, SHG-44 and TJ905.

TJ899 (human glioma) = experiment: In vitro tumour cell growth inhibition (MTT), TJ899; type: cell-based; settings: Homo sapiens, Table 2 experiment, 96 h
Method: as §5, §6, §7, §8

MV3 (human melanoma) = experiment: In vitro tumour cell growth inhibition (MTT), MV3; type: cell-based; settings: Homo sapiens, 96 h
Method: as §5, §6, §7, §8

TJ905 (human glioma) = experiment: In vitro tumour cell growth inhibition (MTT), TJ905; type: cell-based; settings: Homo sapiens, Table 2 experiment, 96 h
Method: as §5, §6, §7, §8

SHG-44 (human glioma) = experiment: In vitro tumour cell growth inhibition (MTT), SHG-44; type: cell-based; settings: Homo sapiens, SHG-44, Table 2 experiment, 96 h
Method: as §5, §6, §7, §8

M14 (human melanoma) = experiment: In vitro tumour cell growth inhibition (MTT), M14; type: cell-based; settings: Homo sapiens, Table 2 experiment, 96 h
Method: as §5, §6, §7, §8

B16 (mouse melanoma) = experiment: In vitro tumour cell growth inhibition (MTT), B16; type: cell-based; settings: Mus musculus, Table 2 experiment, 96 h
Method: as §5, §6, §7, §8

[5] = test system: Bel7402 (human hepatocellulor); experiment: In vitro tumour cell growth inhibition (MTT), Bel-7402; type: cell-based; settings: Table 1 experiment, 96 h
Method: as §5, §6, §7
(§9) The IC50 was calculated from the curve of the tested compound concentrations against the inhibition rate of the tumour cells. […]

HCT-8 (human colon) = experiment: In vitro tumour cell growth inhibition (MTT), HCT-8; type: cell-based; settings: Table 1 experiment, 96 h
Method: as §5, §6, §7, §9

MCF-7 (human breast) = experiment: In vitro tumour cell growth inhibition (MTT), MCF-7; type: cell-based; settings: MCF7, Table 1 experiment, 96 h
Method: as §5, §6, §7, §9

[6] = test system: A549 (human non small lung); experiment: In vitro tumour cell growth inhibition (MTT), A549; type: cell-based; settings: Table 1 experiment, 96 h
Method: as §5, §6, §7, §9

TLX5 lymphoma cell line = settings: Tsang 1990; cited from earlier work
BGC-823 (human stomach) = experiment: In vitro tumour cell growth inhibition (MTT), BGC-823; type: cell-based; settings: Table 1 experiment, 96 h
Method: as §5, §6, §7, §9

COC(=O)c1ncn2c(=O)n(C)nnc12 [Temozolomide methyl ester, Methyl 3,4-dihydro-3-methyl-4-oxoimidazo[5,1-d]-1,2,3,5-tetrazine-8-carboxylate]
Permeation through synthetic silicone membrane [1]: can not pass through the synthetic membrane easily
Degradation to temozolomide acid by pig liver esterase (pig liver esterase): completely degraded and released temozolomide acid
solubility at 5 h [2]: 3000 µg/mL (≈ 14300 µM)

CCCCNC(=O)c1ncn2c(=O)n(C)nnc12 [Temozolomide n-butyl amide, 3-Methyl-N-(n-butyl)-4-oxoimidazo[5,1-d]-1,2,3,5-tetrazine-8-carboxamide]
Degradation to temozolomide acid by pig liver esterase (pig liver esterase): no the temozolomide acid was observed; also recorded: gradually decomposed into un-identifiable products without the observation of temozolomide acid
solubility at 5 h [2]: 1800 µg/mL (≈ 7190 µM)
Permeation through human skin ([3]; 37° C., FIG. 9): notably better than temozolomide
Metabolism within human skin to temozolomide acid ([3]; human skin): resistant to metabolism

Cn1nnc2c(C(N)=O)ncn2c1=O [Temozolomide, 8-Carbamoyl-3-methylimidazo[5,1-d]-1,2,3,5-tetrazine-4(3H)-one]
logP [4]: -0.66
Permeation through synthetic silicone membrane [1]: can not pass through the synthetic membrane easily; also recorded: lowest permeation
IC50 (B16-BL6 (mouse melanoma)): > 100 µg/mL
IC50 (TJ899 (human glioma)): > 100 µg/mL
IC50 (MV3 (human melanoma); Table 2 experiment (separate)): 7.86 µg/mL (≈ 40.5 µM)
solubility at 5 h [2]: 3000 µg/mL (≈ 15500 µM)
IC50 (TJ905 (human glioma)): > 100 µg/mL
IC50 (SHG-44 (human glioma)): 9.04 µg/mL (≈ 46.6 µM)
IC50 (M14 (human melanoma)): > 100 µg/mL
IC50 (B16 (mouse melanoma)): 61.9 µg/mL (≈ 319 µM)

Cn1nnc2c(C(=O)O)ncn2c1=O [temozolomide acid, 3,4-dihydro-3-methyl-4-oxoimidazo[5,1-d]-1,2,3,5-tetrazine-8-carboxylic acid]
IC50 [5]: 17 µg/mL (≈ 86.9 µM)
IC50 (HCT-8 (human colon)): 18.5 µg/mL (≈ 94.9 µM)
IC50 (MCF-7 (human breast)): 14.9 µg/mL (≈ 76.4 µM)
IC50 (B16-BL6 (mouse melanoma)): 43.5 µg/mL (≈ 223 µM)
IC50 [6]: > 19.5 µg/mL
IC50 (TJ899 (human glioma)): > 100 µg/mL
IC50 (MV3 (human melanoma); Table 1 experiment): 14.6 µg/mL (≈ 74.9 µM)
IC50 (MV3 (human melanoma); Table 2 experiment (separate)): 36 µg/mL (≈ 185 µM)
IC50 (TJ905 (human glioma)): > 100 µg/mL
in vitro IC50 compared with temozolomide (TLX5 lymphoma cell line): almost identical to that of temozolomide
IC50 (SHG-44 (human glioma)): 7.07 µg/mL (≈ 36.2 µM)
IC50 (M14 (human melanoma)): 99 µg/mL (≈ 507 µM)
IC50 (BGC-823 (human stomach)): > 19.5 µg/mL
IC50 (B16 (mouse melanoma)): 36.2 µg/mL (≈ 185 µM)
